Test results: PubChem BioAssay (NCI)
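48-hour exposure; five concentrations; linearly interpolated endpoints. The concentration for 50% growth inhibition is given as GI50. The concentration for full growth arrest is given as TGI.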

Experiments:
Assay in all cases: NCI anticancer screen, dose series, 48 h; in the data active = GI50 below about 0.43 µM; inactive = the rest
HT29 colon = test system: HT29 colon
A549 NSCLC = test system: A549 NSCLC
OVCAR-8 ovarian = test system: OVCAR-8 ovarian
IGROV1 ovarian = test system: IGROV1 ovarian
T-47D breast = test system: T-47D breast
HOP-62 NSCLC = test system: HOP-62 NSCLC
MOLT-4 leukemia = test system: MOLT-4 leukemia
786-0 renal = test system: 786-0 renal
OVCAR-5 ovarian = test system: OVCAR-5 ovarian
NCI-H522 lung = test system: NCI-H522 lung
U251 CNS = test system: U251 CNS
K-562 leukemia = test system: K-562 leukemia
UACC-257 melanoma = test system: UACC-257 melanoma
NCI/ADR-RES ovarian = test system: NCI/ADR-RES ovarian
DU-145 prostate = test system: DU-145 prostate
SF-539 CNS = test system: SF-539 CNS
A498 renal = test system: A498 renal
CAKI-1 renal = test system: CAKI-1 renal
OVCAR-3 ovarian = test system: OVCAR-3 ovarian
HCT-15 colon = test system: HCT-15 colon
UACC-62 melanoma = test system: UACC-62 melanoma
EKVX NSCLC = test system: EKVX NSCLC
SK-MEL-5 melanoma = test system: SK-MEL-5 melanoma
SK-MEL-28 melanoma = test system: SK-MEL-28 melanoma
M14 melanoma = test system: M14 melanoma
MDA-MB-435 = test system: MDA-MB-435
SR leukemia = test system: SR leukemia
SNB-19 CNS = test system: SNB-19 CNS
UO-31 renal = test system: UO-31 renal
HCC-2998 colon = test system: HCC-2998 colon
COLO 205 colon = test system: COLO 205 colon
SF-295 CNS = test system: SF-295 CNS
LOX IMVI melanoma = test system: LOX IMVI melanoma
NCI-H460 lung = test system: NCI-H460 lung
MALME-3M melanoma = test system: MALME-3M melanoma
KM12 colon = test system: KM12 colon
OVCAR-4 ovarian = test system: OVCAR-4 ovarian
RPMI-8226 leukemia = test system: RPMI-8226 leukemia
MDA-MB-231 breast = test system: MDA-MB-231 breast
BT-549 breast = test system: BT-549 breast
HOP-92 NSCLC = test system: HOP-92 NSCLC
ACHN renal = test system: ACHN renal
NCI-H23 lung = test system: NCI-H23 lung
PC-3 prostate = test system: PC-3 prostate
SN12C renal = test system: SN12C renal
CCRF-CEM leukemia = test system: CCRF-CEM leukemia
HS 578T breast = test system: HS 578T breast
SF-268 CNS = test system: SF-268 CNS
HCT-116 colon = test system: HCT-116 colon
SW-620 colon = test system: SW-620 colon
SK-OV-3 ovarian = test system: SK-OV-3 ovarian
MCF7 breast = test system: MCF7 breast

COc1ccc(/C=C2\c3cc(OC)c(OC)c(OC)c3CC[C@@H]2O)cc1F
235 nM: TGI (MDA-MB-435)
61100 nM: TGI (SK-OV-3 ovarian)
93400 nM: TGI (OVCAR-8 ovarian)
917 nM: TGI (SF-539 CNS)
16900 nM: TGI (NCI-H460 lung)
42700 nM: TGI (BT-549 breast)
inactive: GI50 (HT29 colon) 1360 nM | GI50 (A549 NSCLC) 693 nM | GI50 (OVCAR-8 ovarian) 598 nM | GI50 (IGROV1 ovarian) 812 nM | GI50 (MOLT-4 leukemia) 956 nM | GI50 (786-0 renal) 492 nM | GI50 (OVCAR-5 ovarian) 10400 nM | GI50 (U251 CNS) 469 nM | GI50 (UACC-257 melanoma) > 100000 nM | GI50 (EKVX NSCLC) 823 nM | GI50 (SK-MEL-28 melanoma) 7540 nM | GI50 (SNB-19 CNS) 855 nM | GI50 (UO-31 renal) 534 nM | GI50 (HCC-2998 colon) 809 nM | GI50 (COLO 205 colon) 1030 nM | GI50 (OVCAR-4 ovarian) 1100 nM | GI50 (RPMI-8226 leukemia) 1820 nM | GI50 (MDA-MB-231 breast) 958 nM | GI50 (BT-549 breast) 443 nM | GI50 (HOP-92 NSCLC) 25000 nM | GI50 (ACHN renal) 815 nM | GI50 (PC-3 prostate) 474 nM | GI50 (SN12C renal) 949 nM | GI50 (CCRF-CEM leukemia) 815 nM | GI50 (SF-268 CNS) 748 nM
639 nM: TGI (NCI-H522 lung)
33200 nM: TGI (U251 CNS)
7590 nM: TGI (COLO 205 colon)
17200 nM: TGI (SK-MEL-5 melanoma)
13400 nM: TGI (HT29 colon)
> 100000 nM: TGI (A549 NSCLC) | TGI (IGROV1 ovarian) | TGI (T-47D breast) | TGI (HOP-62 NSCLC) | TGI (MOLT-4 leukemia) | TGI (786-0 renal) | TGI (OVCAR-5 ovarian) | TGI (K-562 leukemia) | TGI (UACC-257 melanoma) | TGI (DU-145 prostate) | TGI (CAKI-1 renal) | TGI (OVCAR-3 ovarian) | TGI (HCT-15 colon) | TGI (UACC-62 melanoma) | TGI (EKVX NSCLC) | TGI (SK-MEL-28 melanoma) | TGI (M14 melanoma) | TGI (SR leukemia) | TGI (SNB-19 CNS) | TGI (SF-295 CNS) | TGI (MALME-3M melanoma) | TGI (KM12 colon) | TGI (OVCAR-4 ovarian) | TGI (RPMI-8226 leukemia) | TGI (MDA-MB-231 breast) | TGI (HOP-92 NSCLC) | TGI (ACHN renal) | TGI (NCI-H23 lung) | TGI (PC-3 prostate) | TGI (SN12C renal) | TGI (CCRF-CEM leukemia) | TGI (HS 578T breast) | TGI (SF-268 CNS) | TGI (HCT-116 colon) | TGI (SW-620 colon) | TGI (MCF7 breast)
80200 nM: TGI (HCC-2998 colon)
697 nM: TGI (A498 renal)
active: GI50 (T-47D breast) 360 nM | GI50 (HOP-62 NSCLC) 245 nM | GI50 (NCI-H522 lung) 156 nM | GI50 (K-562 leukemia) 86.5 nM | GI50 (NCI/ADR-RES ovarian) 196 nM | GI50 (DU-145 prostate) 322 nM | GI50 (SF-539 CNS) 272 nM | GI50 (A498 renal) 152 nM | GI50 (CAKI-1 renal) 391 nM | GI50 (OVCAR-3 ovarian) 262 nM | GI50 (HCT-15 colon) 190 nM | GI50 (UACC-62 melanoma) 283 nM | GI50 (SK-MEL-5 melanoma) 234 nM | GI50 (M14 melanoma) 274 nM | GI50 (MDA-MB-435) 39.9 nM | GI50 (SR leukemia) 89.9 nM | GI50 (SF-295 CNS) 222 nM | GI50 (LOX IMVI melanoma) 395 nM | GI50 (NCI-H460 lung) 299 nM | GI50 (MALME-3M melanoma) 261 nM | GI50 (KM12 colon) 373 nM | GI50 (NCI-H23 lung) 318 nM | GI50 (HS 578T breast) 299 nM | GI50 (HCT-116 colon) 331 nM | GI50 (SW-620 colon) 246 nM | GI50 (SK-OV-3 ovarian) 306 nM | GI50 (MCF7 breast) 88 nM
89900 nM: TGI (UO-31 renal)
48600 nM: TGI (LOX IMVI melanoma)
1310 nM: TGI (NCI/ADR-RES ovarian)
